Legend:
Type in all cases: cell-based, human
SKMel-103 cells = assay: MTT cell viability assay in proliferative and palbociclib-induced senescent SKMel-103 cells
Procedure: (§1) Cells were plated in 96 well plates at a density of 3×10^3-8×10^3 cells/well (proliferative) or 8×10^3-10×10^3 cells/well (senescent). An MTT assay (Sigma-Aldrich, Merck KGaA, Darmstadt, Germany) was used to measure cell viability after 48-96 h of treatments. Briefly, MTT was diluted in 0.1 M phosphate buffered saline (PBS) and added to cells grown in 96-well plates at a final concentration of 0.5 mg/ml. After incubation for 2-4 hr at 37°C with MTT, the culture medium was removed. The precipitated formazan was solubilized with dimethyl sulfoxide (DMSO). Absorbance was measured at 570 nm using a microplate reader (Victor Nivo; Perkin Elmer, Hamburg, Germany). For these assays, the effects of vehicle or treatments were expressed as the % of change of the non-treated cells.
Therefore, the MTT assay was used to measure cell viability in proliferative and senescent cells. The model of cellular senescence induced by cyclin-dependent kinases (CDK) inhibition with Palbociclib (Baughn, L. B., et al. A Novel Orally Active Small Molecule Potently Induces G1 Arrest in Primary Myeloma Cells and Prevents Tumor Growth by Specific Inhibition of Cyclin-Dependent Kinase 4/6. Cancer Research (2006), 66(15), 7661-7667; Fry, D. W. et al. Specific inhibition of cyclin-dependent kinase 4/6 by PD 0332991 and associated antitumor activity in human tumor xenografts. Molecular Cancer Therapeutics, (2004) 3(11), 1427-1438) was used. Palbociclib is a CDK inhibitor, which promotes many markers of cellular senescence (Klein, M. E., et al. CDK4/6 Inhibitors: The Mechanism of Action May Not Be as Simple as Once Thought. Cancer Cell, (2018) 34(1), 9-20; Llanos, S., et al. Lysosomal trapping of palbociclib and its functional implications. Oncogene, (2019) 38(20), 3886-3902), including an enlarged and flattened cell shape and an enhanced senescence-associated β-galactosidase (SA-β-gal) activity (Figure 1A). Treatment with increasing concentrations of Tvs1 (0.1 nM to 3 µM) led to a dose-dependent reduction in viability of SKMel103 cells (Figure 1B). […]

[1] = test system: senescent HGPS skin fibroblast; assay: Senolysis in HGPS skin fibroblasts (viability, β-galactosidase staining); conditions: 48h
Procedure: All human cancer cell lines and the non-transformed fibroblast lines were maintained in a humidified incubator at 37°C and 5% CO2 and used between passages 4 and 15. All lines were frequently checked and ensured to be mycoplasma free. Cells were split twice a week and before archiving an 90% confluency. SKMel103, SH-SY5Y, Huh7, A549, U251 were donated from collaborators or obtained from the Translational Venomics' stock. Primary lung fibroblasts (PCS201013) and primary dermal fibroblasts (PCS201012) were purchased from ATCC (Manassas, VA, USA). Skin fibroblasts from Hutchinson-Gilford progeria syndrome donors were purchase from the Progeria Research Foundation (HGADFN 127, 143, 167, 178) or Coriell Institute (AG01972E, AG06917K and AG11513F). The cells were maintained following the recommendations of the cell banks.
Cells were plated in 96 well plates at a density of 3×10^3-8×10^3 cells/well (proliferative) or 8×10^3-10×10^3 cells/well (senescent). An MTT assay (Sigma-Aldrich, Merck KGaA, Darmstadt, Germany) was used to measure cell viability after 48-96 h of treatments. […] Absorbance was measured at 570 nm using a microplate reader (Victor Nivo; Perkin Elmer, Hamburg, Germany). For these assays, the effects of vehicle or treatments were expressed as the % of change of the non-treated cells. […]

[2] = test system: SKMel-103, A549, Huh7, SH-SY5Y cells; assay: MTT cell viability in different models of cellular senescence and cancer cell lines; conditions: senescent cancerous cell lines, senescence by doxorubicin, bleomycin or palbociclib
Procedure: as §1
Next, it was evaluated the senolytic capacity of Tvs1 in different models of cellular senescence and cancer cell lines. For that purpose, chemotherapy known to induce cellular senescence by genotoxic damage (doxorubicin and bleomycin) or by inhibiting cyclin-dependent kinases (palbociclib) was used. Cellular models of melanoma, lung adenocarcinoma (A549), hepatoma (Huh7) and neuroblastoma (SH-SY5Y) were used. Tvs1G consistently produced a senolytic effect in all the cancerous cell lines tested independently of the stimulus for achieving cellular senescence (Figure 2, Figures 4F, 4G, 4H). […]

Row | Compound | senolytic effect (SKMel-103 cells; tested senescent melanoma cells) | senolysis / viability [1] | EC50 (SKMel-103 cells; Homo sapiens, SK-MEL-103, palbociclib-induced senescent SKMel-103 cells, 48h treatment, read-out: EC50 (senolytic potency)) | SI (SKMel-103 cells; senolytic index, ratio of the IC50 in proliferative and senescent cells) | senolytic effect [2]
1 | C[C@H]1O[C@@H](O[C@H]2[C@@H](O)C[C@H](O[C@H]3[C@@H](O)C[C@H](O[C@H]4CC[C@@]5(C)[C@H](CC[C@@H]6[C@@H]5C[C@@H](O)[C@]5(C)[C@@H](C7=CC(=O)OC7)CC[C@]65O)C4)O[C@@H]3C)O[C@@H]2C)C[C@H](O)[C@@H]1O [digoxin] | not effective | failed |  |  | 
2 | CC1(C)CCC(c2ccc(Cl)cc2)=C(CN2CCN(c3ccc(C(=O)NS(=O)(=O)c4ccc(N[C@H](CCN5CCOCC5)CSc5ccccc5)c(S(=O)(=O)C(F)(F)F)c4)cc3)CC2)C1 [navitoclax] |  | failed | 400 nM | 22 | 
3 | O=c1c(O)c(-c2ccc(O)c(O)c2)oc2cc(O)cc(O)c12 [Q, quercetin] |  |  |  |  | failed
4 | O=c1c(O)c(-c2ccc(O)c(O)c2)oc2cc(O)ccc12 [F, fisetin] |  |  |  |  | failed
